Results published in patent publication US11078496B2, “System for F-box hormone receptor regulated protein expression in mammalian cells” (ICAHN SCHOOL OF MEDICINE AT MOUNT SINAI, priority 2016, dated 2021).

Test system: J-p53 (OsJAZ^33-p53)
Test: Coronatine-dependent degradation of J-p53 in H9 hESCs (western blot quantification)
Type: cell-based, human
Conditions: 50 μM coronatine, 1 day
Procedure: FIGS. 11A-11G illustrate a coronatine-induced degradation rescue system. […] GFP fluorescence was measured by flow cytometry and % degradation was calculated. The corresponding components and biological replicate number (n) are indicated. The bar for pJAZ 6-Os23 is in grey color, to indicate reduced GFP fluorescence in non-treated cells (FIG. 10F). […] GFP fluorescence was measured using flow cytometry. The experiment was repeated three times, and representative results are presented. In FIGS. 11C-11D, H9 hESCs were infected with pJAZ NLS-GFP-OsJAZ^33 (“GFP-J”) or pJAZ OsJAZ^33-p^53 (“J-p53”) that harbors an shRNA targeting the 3′-UTR of p53 and an OsJAZ^33degron-fused p53 coding sequence lacking UTRs. […] P-values were calculated using unpaired Student's t-test. […] After 24 hours, microscopic bright-field (“BF”) and fluorescence images were taken (FIG. 11E, scale bars, 100 μm) and cells were subjected to flow analysis (FIG. 11F, contour plots; FIG. 11G, quantification, error bars represent standard deviation.). […]
Cells were lysed in RIPA-B buffer (20 mM Na2HPO4 pH 7.4, 150 mM NaCl and 1% Triton X-100) supplemented with Protease Inhibitor Cocktail (Roche) for 30 minutes on ice with occasional vortexing, followed by 30 minutes centrifugation at 13,000 relative centrifugal force at 4° C. […] Luminescence was detected with X-ray films, which were scanned, or using the Bio-Rad ChemiDoc MP System. […]

Question: Which “coronatine-dependent degradation of J-p53” value does the source give for CC[C@H]1C=C(C(=O)N[C@@]2(C(=O)O)C[C@@H]2CC)[C@H]2CCC(=O)[C@H]2C1 [coronatine, Coronatine] here?
Answer: 90%
